Experimental data taken from the supplement of paper PMC10307832.

Legend:
Assay in all cases: relative viability (nuclei count vs DMSO), 5 days (fraction); higher = more cells survive
[1] = compound: CCCS(=O)(=O)Nc1ccc(F)c(C(=O)c2c[nH]c3ncc(-c4ccc(Cl)cc4)cc23)c1F [Vemurafenib] + CC(=O)c1c(C)c2cnc(Nc3ccc(N4CCNCC4)cn3)nc2n(C2CCCC2)c1=O [Palbociclib] (partner 0.5 µM)
How it was run: (§1)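 A single step with final 0.05% Triton X-100, 1% formaldehyde and 1 ug/ml Hoechst fixed the cells and stained nuclei 5 days after treatment. Lung cancer cell lines in 1536-well plates had been treated by pin tool the day after seeding with one drug alone or a fixed anchor-drug dose plus five library-drug doses (not always all listed) in √10 steps, and nuclei were counted on 4× images. Relative viability is the ratio of nuclei in treated wells to nuclei in vehicle wells, taken as the median of duplicate plates.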

Vemurafenib + Navitoclax = compound: CCCS(=O)(=O)Nc1ccc(F)c(C(=O)c2c[nH]c3ncc(-c4ccc(Cl)cc4)cc23)c1F [Vemurafenib] + CC1(C)CCC(c2ccc(Cl)cc2)=C(CN2CCN(c3ccc(C(=O)NS(=O)(=O)c4ccc(N[C@H](CCN5CCOCC5)CSc5ccccc5)c(S(=O)(=O)C(F)(F)F)c4)cc3)CC2)C1 [Navitoclax] (partner 0.5 µM)
How it was run: as §1

OSI-027 + Bortezomib = compound: COc1cccc2cc(-c3nc([C@H]4CC[C@H](C(=O)O)CC4)n4ncnc(N)c34)[nH]c12 [OSI-027] + CC(C)C[C@H](NC(=O)[C@H](Cc1ccccc1)NC(=O)c1cnccn1)B(O)O [Bortezomib] (partner 0.002 µM)
How it was run: as §1

OSI-027 + Decitabine = compound: COc1cccc2cc(-c3nc([C@H]4CC[C@H](C(=O)O)CC4)n4ncnc(N)c34)[nH]c12 [OSI-027] + Nc1ncn([C@H]2C[C@H](O)[C@@H](CO)O2)c(=O)n1 [Decitabine] (partner 2 µM)
How it was run: as §1

Cell Line	relative viability ([1]; first compound 0.03162 µM)	relative viability ([1]; first compound 0.1 µM)	relative viability ([1]; first compound 0.3162 µM)	relative viability ([1]; first compound 1 µM)	relative viability (Vemurafenib + Navitoclax; first compound 0.03162 µM)	relative viability (Vemurafenib + Navitoclax; first compound 0.1 µM)	relative viability (Vemurafenib + Navitoclax; first compound 0.3162 µM)	relative viability (Vemurafenib + Navitoclax; first compound 1 µM)	relative viability (OSI-027 + Bortezomib; first compound 0.01 µM)	relative viability (OSI-027 + Bortezomib; first compound 0.03162 µM)	relative viability (OSI-027 + Bortezomib; first compound 0.1 µM)	relative viability (OSI-027 + Bortezomib; first compound 0.3162 µM)	relative viability (OSI-027 + Bortezomib; first compound 1 µM)	relative viability (OSI-027 + Decitabine; first compound 0.01 µM)	relative viability (OSI-027 + Decitabine; first compound 0.03162 µM)	relative viability (OSI-027 + Decitabine; first compound 0.1 µM)	relative viability (OSI-027 + Decitabine; first compound 0.3162 µM)	relative viability (OSI-027 + Decitabine; first compound 1 µM)
LXF-289	0.548	0.526	0.601	0.667	0.853	0.883	0.951	1.03	1.03	1.05	1.05	0.984	0.837	0.378	0.355	0.379	0.367	0.349
NCI-H23	0.495	0.479	0.498	0.536	0.894	0.9	0.888	0.796	0.967	0.834	0.944	1.02	0.656	0.296	0.336	0.305	0.278	0.268
NCI-H322M	0.444	–	0.557	0.475	1.09	–	1.44	1.1	1.23	1.24	1.13	0.983	0.986	0.66	0.658	0.694	0.662	0.542
NCI-H441	0.23	0.185	0.241	0.237	0.798	0.614	–	0.735	0.605	0.254	0.476	0.381	0.28	0.266	0.263	0.261	0.293	0.259
NCI-H460	0.146	0.152	0.108	0.203	1.17	1.14	1.02	1.07	1.41	1.14	0.862	0.94	0.139	0.544	0.502	0.541	0.456	0.241
NCI-H520	0.222	0.188	0.221	0.222	1.04	1.16	1.11	1.15	0.62	0.394	0.459	0.179	0.225	0.583	0.482	0.47	0.363	0.228
NCI-H647	0.375	0.434	0.404	0.394	1.05	0.913	–	1.23	0.992	0.981	1	0.884	0.432	0.385	0.543	0.397	0.248	0.211
NCI-H727	0.699	0.631	0.811	0.661	0.518	0.366	0.613	0.438	0.915	0.9	0.896	0.766	0.682	0.808	0.778	0.849	0.774	0.761
